Measurements reported in the NIST ThermoML archive (doi:10.1021/je060170c).
± gives the expanded uncertainty stated by the source.

Experiment: xn = mol fraction of the nth substance listed
Conditions: 101 kPa, Liquid; for viscosity: Anton Paar Stabinger viscometer

Cc1cc(C)cc(C)c1 [1,3,5-trimethylbenzene] + COc1ccccc1
Conditions | mass density, 298.15 K [kg/m3] | mass density, 303.15 K [kg/m3] | speed of sound, 298.15 K [m/s] | speed of sound, 303.15 K [m/s] | viscosity, 298.15 K [mPa·s] | viscosity, 303.15 K [mPa·s]
x2 = 0 | 861.062 ± 0.44 | 856.95 ± 0.44 | 1336.9 ± 5.5 | 1316.8 ± 5.4 | 0.661 ± 0.02 | 0.621 ± 0.019
x2 = 0.074 | 868.529 ± 0.42 | 864.41 ± 0.43 | 1342.6 ± 5.5 | 1320.5 ± 5.4 | 0.674 ± 0.02 | 0.633 ± 0.019
x2 = 0.181 | 879.758 ± 0.41 | 875.58 ± 0.41 | 1350.1 ± 5.5 | 1326.7 ± 5.4 | 0.697 ± 0.021 | 0.65 ± 0.02
x2 = 0.334 | 896.835 ± 0.38 | 892.57 ± 0.39 | 1360 ± 5.5 | 1336.1 ± 5.5 | 0.733 ± 0.022 | 0.677 ± 0.021
x2 = 0.4982 | 916.671 ± 0.35 | 912.31 ± 0.36 | 1370.5 ± 5.5 | 1347.1 ± 5.5 | 0.767 ± 0.023 | 0.706 ± 0.021
x2 = 0.628 | 933.575 ± 0.32 | 929.13 ± 0.33 | 1379.4 ± 5.6 | 1356.2 ± 5.5 | 0.827 ± 0.025 | 0.758 ± 0.023
x2 = 0.7512 | 950.712 ± 0.3 | 946.19 ± 0.3 | 1388.1 ± 5.6 | 1365.4 ± 5.5 | 0.863 ± 0.026 | 0.792 ± 0.024
x2 = 0.814 | 959.91 ± 0.28 | 955.34 ± 0.29 | 1392.9 ± 5.6 | 1370.5 ± 5.5 | 0.912 ± 0.028 | 0.837 ± 0.025
x2 = 0.875 | 969.162 ± 0.27 | 964.55 ± 0.28 | 1397.6 ± 5.6 | 1375.6 ± 5.6 | 0.946 ± 0.029 | 0.87 ± 0.026
x2 = 0.94 | 979.363 ± 0.25 | 974.7 ± 0.26 | 1402.8 ± 5.7 | 1382.8 ± 5.6 | 0.993 ± 0.03 | 0.912 ± 0.028
